In one data set the test system is HMEC. The data set is described as follows: CellTiterGlo. Type of data set: cell-based. The conditions noted are these: Homo sapiens, read-out: HMEC EC50.
The next data set has as its system MDA-MB-231. Nature of the data set: CellTiterGlo. It is filed as cell-based. The conditions noted are these: Homo sapiens, MDA-MB-231, read-out: MDA-MB-231 EC50.
Another data set relates to SUM149. The data set is described as follows: CellTiterGlo. It is filed as cell-based. The conditions noted are these: SUM149, read-out: SUM149 EC50.
The test system of the next data set is T-47D. Nature of the data set: CellTiterGlo. Type of data set: cell-based. The conditions noted are these: Homo sapiens, T47D, read-out: T-47D EC50.
Data set [1] is described as follows: Solubility / precipitation. The note with it: 5–10 mM concentrations in DMSO, RT.

Regarding `CCCCCOC(=O)Nc1nc(=O)n([C@@H]2O[C@H](C)[C@@H](O)[C@H]2O)cc1F` [Capecitabine], the figures for the half-maximal effective concentration (EC50) in the data set with HMEC, in the data set with MDA-MB-231 and in the data set with SUM149 were 10 µM, 5 µM and 5 µM, respectively.
On to `COc1cccc2c1C(=O)c1c(O)c3c(c(O)c1C2=O)C[C@@](O)(C(=O)CO)C[C@@H]3O[C@H]1C[C@H](N)[C@H](O)[C@H](C)O1` [Doxorubicin], for which the concentration for a half-maximal effect (EC50) in the data set on HMEC is greater than 10 µM; in the data set with MDA-MB-231 it was 1 µM; in the data set with SUM149, 1 µM.
Regarding `CC(=O)O[C@H]1C(=O)[C@@]2(C)[C@H]([C@H](OC(=O)c3ccccc3)[C@]3(O)C[C@H](OC(=O)[C@H](O)[C@@H](NC(=O)c4ccccc4)c4ccccc4)C(C)=C1C3(C)C)[C@]1(OC(C)=O)CO[C@@H]1C[C@@H]2O` [Taxol], the figures for the EC50 with HMEC, in the data set with MDA-MB-231 and in the data set with SUM149 were greater than 10 µM, 2 µM and 0.01 µM, respectively.
In the case of `CC(C)[C@@H](C)/C=C/[C@@H](C)[C@H]1CC[C@@H]2[C@]1(C)CC[C@H]1[C@]23C=C[C@]2(C[C@@H](O)CC[C@]12C)OO3` [compound 3, ergosterol peroxide], the solubility in the data set “physchem” is less than 50 µM. The EC50 in the data set on HMEC is greater than 20 µM; with MDA-MB-231, 18 µM; in the data set on SUM149 it was 9 µM; in the data set with T-47D, 19 µM. Also, the “time after which precipitation occurs” value in data set [1] stood at 168 h.

Source of the values: PMC6541511 (Organic & biomolecular chemistry, 2019).
